According to publication PMC9521027 (ACS Omega, 2022):
Positions count from the first letter of the chain named. Numbers in names are those of the source. Where “and” joins values, the source holds several entries; their conditions need not be identical. Equal entries are not always repeated.

What was measured:
URAT1 K393H mutant [1] = molecular target: T1, URAT1 K393H mutant (Homo sapiens, UniProt Q96S37, K393H); assay: 14C-uric acid binding assay with membrane protein; details: 1 μM BM, 1 μM verinurad, 10 μM lesinurad, 20 μM probenecid, 30 min, 25 μM 14C-uric acid
T1 sequence (Q96S37 1-553 K393H): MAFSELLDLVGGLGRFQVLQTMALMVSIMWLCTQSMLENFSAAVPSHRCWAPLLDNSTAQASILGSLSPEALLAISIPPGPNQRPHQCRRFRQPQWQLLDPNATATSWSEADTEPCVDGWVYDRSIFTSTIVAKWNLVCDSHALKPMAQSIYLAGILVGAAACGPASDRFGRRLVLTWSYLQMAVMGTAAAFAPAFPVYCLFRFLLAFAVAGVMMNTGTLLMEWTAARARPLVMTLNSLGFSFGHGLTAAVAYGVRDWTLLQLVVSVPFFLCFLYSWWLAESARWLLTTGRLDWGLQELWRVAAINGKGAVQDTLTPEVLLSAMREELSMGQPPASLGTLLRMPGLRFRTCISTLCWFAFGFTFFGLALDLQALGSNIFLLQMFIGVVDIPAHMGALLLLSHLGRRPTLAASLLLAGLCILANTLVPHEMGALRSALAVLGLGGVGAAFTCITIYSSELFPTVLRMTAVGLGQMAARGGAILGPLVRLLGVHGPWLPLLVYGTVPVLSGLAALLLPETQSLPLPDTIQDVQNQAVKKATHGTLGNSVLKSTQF

URAT1 K393R mutant [2] = molecular target: T2, URAT1 K393R mutant (Homo sapiens, UniProt Q96S37, K393R); assay: 14C-uric acid binding assay with membrane protein; details: 1 μM BM, 1 μM verinurad, 10 μM lesinurad, 20 μM probenecid, 30 min, 25 μM 14C-uric acid
T2 sequence (Q96S37 1-553 K393R): T1 sequence (Q96S37 1-553 K393H) with H393R

URAT1 K393R mutant [3] = molecular target: T2, URAT1 K393R mutant; assay: 14C-uric acid uptake assay in transfected HEK293 cells; type: cell-based
URAT1 K393H mutant [4] = molecular target: T1, URAT1 K393H mutant; assay: as above; type: cell-based
URAT1 K393A mutant = molecular target: T3, URAT1 K393A mutant (Homo sapiens, UniProt Q96S37, K393A); assay: as above; type: cell-based
T3 sequence (Q96S37 1-553 K393A): T1 sequence (Q96S37 1-553 K393H) with H393A

URAT1 K393D mutant = molecular target: T4, URAT1 K393D mutant (Homo sapiens, UniProt Q96S37, K393D); assay: as above; type: cell-based
T4 sequence (Q96S37 1-553 K393D): T1 sequence (Q96S37 1-553 K393H) with H393D

URAT1 K393E mutant = molecular target: T5, URAT1 K393E mutant (Homo sapiens, UniProt Q96S37, K393E); assay: as above; type: cell-based
T5 sequence (Q96S37 1-553 K393E): T1 sequence (Q96S37 1-553 K393H) with H393E

wild-type hURAT1 = molecular target: T6, wild-type hURAT1 (Homo sapiens, UniProt Q96S37); assay: cell-based
T6 sequence (Q96S37 1-553): T1 sequence (Q96S37 1-553 K393H) with H393K

[5] = substrate: O=c1[nH]c(=O)c2[nH]c(=O)[nH]c2[nH]1; assay: Saturation kinetic experiment of 14C-uric acid uptake; type: cell-based, human; details: 10–200 μM 14C-uric acid, 20 min, HEK293, n = 3

**Q.** `O=C(O)CSc1nnc(Br)n1-c1ccc(C2CC2)c2ccccc12` [lesinurad] was tested. Which “Effect of inhibitor on 14C-uric acid binding compared with WT group” value (shortened to “Effect of inhibitor … compared with WT group”) (URAT1 K393H mutant [1]) did it give?
**A.** similar

**Q.** And the “Effect of inhibitor … compared with WT group” value (URAT1 K393R mutant [2])?
**A.** similar

**Q.** For `CCc1oc2ccccc2c1C(=O)c1cc(Br)c(O)c(Br)c1` [BM, benzbromarone], which “Effect of inhibitor … compared with WT group” value (URAT1 K393H mutant [1]) is on record?
**A.** poorly interfered

**Q.** And the “Effect of inhibitor … compared with WT group” value (URAT1 K393R mutant [2])?
**A.** poorly interfered

**Q.** For `CC(C)(Sc1ccncc1-c1ccc(C#N)c2ccccc12)C(=O)O` [verinurad], which IC50 (URAT1 K393R mutant [3]) is on record?
**A.** 310 ± 290 nM

**Q.** What about the IC50 (URAT1 K393H mutant [4]) of the same molecule?
**A.** 490 ± 240 nM

**Q.** And the IC50 (URAT1 K393A mutant)?
**A.** 420 ± 260 nM

**Q.** And the IC50 (URAT1 K393D mutant)?
**A.** 440 ± 210 nM

**Q.** And the IC50 (URAT1 K393E mutant)?
**A.** 360 ± 220 nM

**Q.** What about the “Effect of inhibitor … compared with WT group” value (URAT1 K393H mutant [1]) of the same molecule?
**A.** similar

**Q.** What about the “Effect of inhibitor … compared with WT group” value (URAT1 K393R mutant [2]) of the same molecule?
**A.** similar

**Q.** What about the IC50 (wild-type hURAT1) of the same molecule?
**A.** 290 ± 120 nM

**Q.** Which “Effect of inhibitor … compared with WT group” value (URAT1 K393H mutant [1]) does the source give for `CCCN(CCC)S(=O)(=O)c1ccc(C(=O)O)cc1` [probenecid] here?
**A.** similar

**Q.** What about the “Effect of inhibitor … compared with WT group” value (URAT1 K393R mutant [2]) of the same molecule?
**A.** similar

B1: hURAT1 K393R mutant (Homo sapiens; K393R) (protein)
chain: T1 sequence (Q96S37 1-553 K393H) with H393R
**Q.** What does the source list for B1?
**A.** Km ([5]; other: K393R): 128.11 μM and 101.23 ± 26.11 (ns) μM; Vmax ([5]; other: K393R): 557.21 ± 89.21(ns)

B2: hURAT1 WT (Homo sapiens) (protein)
chain: T1 sequence (Q96S37 1-553 K393H) with H393K
**Q.** With B2 as the molecule, how does the Km ([5]; other: WT) read?
**A.** 106.45 ± 16.45 µM

**Q.** And the Vmax ([5]; other: WT)?
**A.** 0.000654 µmol/min/mg

B3: hURAT1 K393E mutant (Homo sapiens; K393E) (protein)
chain: T1 sequence (Q96S37 1-553 K393H) with H393E
**Q.** What does the source list for B3?
**A.** Km ([5]; other: K393E): 201.23 ± 23.65 µM; Vmax ([5]; other: K393E): 0.000424 µmol/min/mg

B4: hURAT1 K393A mutant (Homo sapiens; K393A) (protein)
chain: T1 sequence (Q96S37 1-553 K393H) with H393A
**Q.** B4 was tested. Which Km ([5]; other: K393A) did it give?
**A.** 172.12 ± 27.12 µM

**Q.** And the Vmax ([5]; other: K393A)?
**A.** 0.000464 µmol/min/mg

B5: hURAT1 K393D mutant (Homo sapiens; K393D) (protein)
chain: T1 sequence (Q96S37 1-553 K393H) with H393D
**Q.** Which Km ([5]; other: K393D) does the source give for B5 here?
**A.** 165.36 ± 23.41 µM

**Q.** And the Vmax ([5]; other: K393D)?
**A.** 0.000497 µmol/min/mg

B6: hURAT1 K393H mutant (Homo sapiens; K393H) (protein)
chain: T1 sequence (Q96S37 1-553 K393H)
**Q.** Which Km ([5]; other: K393H) does the source give for B6 here?
**A.** 101.23 μM and 128.11 ± 19.12 (ns) μM

**Q.** And the Vmax ([5]; other: K393H)?
**A.** 0.000447 µmol/min/mg
